Results reported in US7732485B2, “Treatment of cancer” (The University of Manchester, priority 2003, dated 2010).

What was measured:
L1210 = assay: Comet assay, DNA crosslinking; type: cell-based, murine; settings: ratio >1 = more cross-linking in parental than in platinum-resistant line
Protocol: (§1) Preliminary studies have been carried out to investigate the mechanism underlying this increased sensitivity. These studies were carried out using the Comet assay (described in Appendix C), which measures damage to DNA. The results are shown in FIGS. 1 (cisplatinum), 2 (carboplatinum), 3 to 8 (compounds A-F) and 9 (phenylgoldtriphenylphospine, PAuP).
(§2) Table 3 illustrates the results of the following calculation using the DNA cross-linking results obtained in the Comet assays:
(§3) DNA damage was measured by the single cell gel electrophoresis (SCGE) assay or “Comet assay”, originally developed by Ostling and Johnson^8. This is a method for determining the extent of DNA damage and repair capacity within individual cells.^9-11 It has previously been shown that this technique can be used to investigate the mechanism of action of different DNA damaging agents.^12
(§4) Cells were trypsinised, suspended in 0.5 ml of ice cold fresh medium and transferred into plastic 24-well dishes prior to embedding in agarose. For the cross-linking studies treated and control samples were chilled on ice (to prevent any repair of DNA damage) and irradiated to a dose of 20 Gy in a Caesium-137 source (0.4 Gy/min). Control, (unirradiated, non-drug treated cells) were maintained on ice in the same manner as treated samples.
(§5) Glass microscope slides, frosted at one end, were pre-coated with 1% normal agarose in distilled water. These slides were allowed to air dry overnight prior to use. A 1% low melting point agarose (LMP) mixture in PBS was melted and held at 45° C. 1 ml of LMP was then added to 0.5 ml of cell suspension on ice and the resultant mixture was pipetted onto a pre-coated glass microscope slide and allowed to set for 1-2 minutes before being transferred to an ice tray. The slides were immersed in ice cold lysis solution (100 mM EDTA, 10 mM Tris-HCl, 1% Triton ×100, 1% DMSO, 2.5M NaCl) for 1 hr, and washed three times by immersion in fresh double distilled water for 15 minutes.
(§6) Slides were then placed onto a flat bed electrophoresis tank and covered (5-6 mm) with alkali unwinding solution (50 mM NaOH, 1 mM EDTA buffered to pH 12.5) and left under subdued lighting for 45 minutes to allow the DNA to unwind before being subjected to electrophoresis at 0.6V/cm for 25 minutes. Each slide was rinsed with 2×1 ml of 0.4M Tris-HCl, pH 8.0 and allowed to dry in air. The dried slides were then rehydrated for 20 minutes with double distilled water, 2×1 ml of propidium iodide solution (2.5 μg/ml) was added and staining was allowed to proceed for 15 minutes. Slides were then immersed in 1 litre of double distilled water for 1 hour to reduce excess background staining. The slides were cover slipped and then examined at 250× magnification under an epifluorescent microscope (Zeiss-Jenamed) using green light from a 50 watt mercury source with a 580 nm reflector and a 590 nm barrier filter set. Images were captured using an attached Sony HAD-1 interline CCD camera and Komet software analysis package (Kinetic Imaging). Twenty-five images from each of two duplicate slides were captured and analysed and the individual “comet moments” as defined by Olive et al^13, were calculated. The total fluorescence of the image represents the amount of DNA present and the length of the image, measured in pixels, represents the length of migration of the DNA. The head and tail areas of the image were identified and the intensity of each was determined. The tail moment is calculated by multiplying the fraction of DNA present in the tail by half the length of the tail.

L1210 cell line = assay: Growth inhibition assay (modified MTT); type: cell-based, murine; settings: five-day MTT
Protocol: (§7) The sensitivities of the cell lines to cisplatinum, carboplatinum, and compounds A-F were determined using a growth inhibition assay which was a modified version of the MTT method (modified version of MTT method described in Appendix B).
(§8) The following is a brief description of the eleven different cell lines used in the growth inhibition assay: • The A2780 cell line (1 in FIGS. 1-9) is a human ovarian cell line which is sensitive to cisplatinum and carboplatinum. […] The cor123/cpr (7) cell line is a modified version of the cor123 cell line which has been modified to be resistant to cisplatinum and carboplatinum. • The ccu24 (8) cell line is an epithelial ovarian cancer cell line, developed at the Christie Hospital from a tumour biopsy, and the ccu24/cpr (9) cell line is a modified version of this cell line which is cisplatinum and carboplatinum resistant. • L1210 (10) is a murine leukemia cell line and L1210/M1140 (11) is its platinum drug resistant subline.
(§9) The cell toxicity studies were performed using a modification of the method MTT.^7 The principle of the assay is to assess the growth inhibitory effect of a drug at various doses over a five-day time course. This assay was performed in 96-well microtitre plates. Cells were seeded at densities of 400-1,000 cells per well, depending on the doubling time of the cell line. All cell dilutions were performed in growth medium containing 10% FCS (foetal calf serum).
(§10) Compounds under investigation were dissolved in DMSO (dimethylsulphoxide). Serial dilutions of compound were made into the cell suspension, ensuring that the proportion of DMSO remained below 0.5%. 200 μl of cells and drug mix was added to the 96-well plates in triplicate. The plates were incubated for five days at 5% CO2 and 37° C. After this time, the plates were removed from the incubator and 50 μl of a 3 mg/ml solution of MTT [3-(4,5-dimethyl-thiazol-2-yl)-2,5-diphenyl tetrazolium bromide] was added to each well and incubated in the same conditions for another 3 hours. The medium from each well was aspirated and the formazan crystals were solubilised in 200 μl of DMSO. The plates were read using a Multiskan platereader at 540 nm and 690 nm. Growth inhibition curves were constructed using mean and standard deviation of the triplicate absorbance values and from these curves the IC50 values were calculated.

L1210/M1140 cell line = assay: Growth inhibition assay (modified MTT); type: cell-based, murine; settings: five-day MTT
Protocol: as §7, §8, §9, §10

cor123 = assay: Comet assay, DNA crosslinking; type: cell-based, human; settings: ratio >1 = more cross-linking in parental than in platinum-resistant line
Protocol: as §1, §2, §3, §4, §5, §6

A2780/mcp8 = assay: Comet assay, DNA crosslinking; type: cell-based, human; settings: ratio >1 = more cross-linking in parental than in platinum-resistant line
Protocol: as §1, §2, §3, §4, §5, §6

ccu24 = assay: Comet assay, DNA crosslinking; type: cell-based, human; settings: ratio >1 = more cross-linking in parental than in platinum-resistant line
Protocol: as §1, §2, §3, §4, §5, §6

A2780cis = assay: Comet assay, DNA crosslinking; type: cell-based, human; settings: ratio >1 = more cross-linking in parental than in platinum-resistant line
Protocol: as §1, §2, §3, §4, §5, §6

A2780carb = assay: Comet assay, DNA crosslinking; type: cell-based, human; settings: ratio >1 = more cross-linking in parental than in platinum-resistant line
Protocol: as §1, §2, §3, §4, §5, §6

A2780mcp1 = assay: Comet assay, DNA crosslinking; type: cell-based, human; settings: ratio >1 = more cross-linking in parental than in platinum-resistant line
Protocol: as §1, §2, §3, §4, §5, §6

A2780cis cell line = assay: Growth inhibition assay (modified MTT); type: cell-based, human; settings: for IC50: A2780cis, five-day MTT
Protocol: as §7, §8, §9, §10

ccu24/cpr cell line = assay: Growth inhibition assay (modified MTT); type: cell-based, human; settings: five-day MTT
Protocol: as §7, §8, §9, §10

A2780carb cell line = assay: Growth inhibition assay (modified MTT); type: cell-based, human; settings: for IC50: A2780carb, five-day MTT
Protocol: as §7, §8, §9, §10

A2780-S cell line = assay: Growth inhibition assay (modified MTT); type: cell-based, human; settings: five-day MTT
Protocol: as §7, §8, §9, §10

mcp1 cell line = assay: Growth inhibition assay (modified MTT); type: cell-based, human; settings: five-day MTT
Protocol: as §7, §8, §9, §10

mcp8 cell line = assay: Growth inhibition assay (modified MTT); type: cell-based, human; settings: five-day MTT
Protocol: as §7, §8, §9, §10

ccu24 cell line = assay: Growth inhibition assay (modified MTT); type: cell-based, human; settings: five-day MTT
Protocol: as §7, §8, §9, §10

cor123 cell line = assay: Growth inhibition assay (modified MTT); type: cell-based, human; settings: five-day MTT
Protocol: as §7, §8, §9, §10

cor123/cpr cell line = assay: Growth inhibition assay (modified MTT); type: cell-based, human; settings: five-day MTT
Protocol: as §7, §8, §9, §10

[1] = Table 1, first series of assays
[2] = Table 2, further series of assays
[3] = Table 1, first series of assays, mcp1
[4] = Table 2, further series of assays, A2780/mcp1
[5] = Table 1, first series of assays, mcp8
[6] = Table 2, further series of assays, A2780/mcp8

Compound | DNA crosslinking (Comet) ratio (L1210) | IC50 (L1210 cell line; [1]) | IC50 (L1210 cell line; [2]) | IC50 (L1210/M1140 cell line; [1]) | IC50 (L1210/M1140 cell line; [2]) | DNA crosslinking (Comet) ratio (cor123) | DNA crosslinking (Comet) ratio (A2780/mcp8) | DNA crosslinking (Comet) ratio (ccu24) | DNA crosslinking (Comet) ratio (A2780cis) | DNA crosslinking (Comet) ratio (A2780carb) | DNA crosslinking (Comet) ratio (A2780mcp1) | IC50 (A2780cis cell line; [1]) | IC50 (A2780cis cell line; [2]) | IC50 (ccu24/cpr cell line; [1]) | IC50 (ccu24/cpr cell line; [2]) | IC50 (A2780carb cell line; [1]) | IC50 (A2780carb cell line; [2]) | IC50 (A2780-S cell line; [1]) | IC50 (A2780-S cell line; [2]) | IC50 (mcp1 cell line; [3]) | other results
c1ccc([PH]([Au][c]2cc[c]([Au][PH](c3ccccc3)(c3ccccc3)c3ccccc3)cc2)(c2ccccc2)c2ccccc2)cc1 [A, 1,4-bis-(triphenylphospinogold(I))benzene] | 0.69 | 38.3 nM | 41.6 nM | 6.4 nM | 9.2 nM | 0.56 | 0.60 | 0.40 | 0.50 | 0.53 | 0.59 | 0.2 nM | 0.5 nM | 3.6 nM | 6.4 nM | 0.6 nM | 0.9 nM | 13.4 nM | 16.5 nM | 0.5 nM | sensitivity of A2780cis relative to parental A2780-S line (A2780cis cell line; from IC50 0.2 nM vs 13.4 nM): over sixty-times more sensitive; sensitivity of A2780carb relative to parental A2780-S line (A2780carb cell line; from IC50 0.6 nM vs 13.4 nM): over twenty-times more sensitive; IC50 (mcp1 cell line; [4]): 3.5 nM; IC50 (mcp8 cell line; [5]): 0.6 nM; IC50 (mcp8 cell line; [6]): 4.6 nM; IC50 (ccu24 cell line; [1]): 25.3 nM; IC50 (ccu24 cell line; [2]): 28.3 nM; IC50 (cor123 cell line; [1]): 19.3 nM; IC50 (cor123 cell line; [2]): 22.2 nM; IC50 (cor123/cpr cell line; [1]): 1.5 nM; IC50 (cor123/cpr cell line; [2]): 4.5 nM
[Au][c]1ccc[c]([Au])c1.c1ccc(P(c2ccccc2)c2ccccc2)cc1.c1ccc(P(c2ccccc2)c2ccccc2)cc1 [B] | 0.47 | 26.6 nM | 29.6 nM | 4.1 nM | 7.2 nM | 0.38 | 0.39 | 0.39 | 0.36 | 0.37 | 0.40 | 0.2 nM | 0.6 nM | 2.1 nM | 5.1 nM | 0.4 nM | 0.7 nM | 9.8 nM | 12.1 nM | 0.4 nM | IC50 (mcp1 cell line; [4]): 3.5 nM; IC50 (mcp8 cell line; [5]): 0.4 nM; IC50 (mcp8 cell line; [6]): 5.4 nM; IC50 (ccu24 cell line; [1]): 18.7 nM; IC50 (ccu24 cell line; [2]): 21.8 nM; IC50 (cor123 cell line; [1]): 12.6 nM; IC50 (cor123 cell line; [2]): 15.8 nM; IC50 (cor123/cpr cell line; [1]): 1.2 nM; IC50 (cor123/cpr cell line; [2]): 4.3 nM
c1ccc([PH]([Au][c]2cccc[c]2[Au][PH](c2ccccc2)(c2ccccc2)c2ccccc2)(c2ccccc2)c2ccccc2)cc1 [Compound C] | 0.71 | 42.7 nM | 45.8 nM | 5.2 nM | 8.4 nM | 0.38 | 0.41 | 0.37 | 0.36 | 0.36 | 0.38 | 0.3 nM | 0.6 nM | 3.3 nM | 6.3 nM | 0.5 nM | 0.8 nM | 12.8 nM | 15.2 nM | 0.5 nM | IC50 (mcp1 cell line; [4]): 3.5 nM; IC50 (mcp8 cell line; [5]): 0.5 nM; IC50 (mcp8 cell line; [6]): 4.6 nM; IC50 (ccu24 cell line; [1]): 20.2 nM; IC50 (ccu24 cell line; [2]): 23.2 nM; IC50 (cor123 cell line; [1]): 14.4 nM; IC50 (cor123 cell line; [2]): 17.6 nM; IC50 (cor123/cpr cell line; [1]): 1.4 nM; IC50 (cor123/cpr cell line; [2]): 4.4 nM
[Au(η2-C6H4CH═NC6H5)Cl2] [Au (III), reference compound] | 0.54 |  |  |  |  | 0.83 | 0.69 | 0.78 | 0.67 | 0.71 | 0.72 |  |  |  |  |  |  |  |  |  | 
